Columns and labels:
Adenosine A2a receptor = biological target: T1, Adenosine A2a receptor (Homo sapiens, UniProt P29274); experiment: Adenosine receptor TR-FRET binding assay, A2a; conditions: displacement of 100 nM CA200645, CHO cell membranes
T1 construct: expressed in transfected cells; host or cells: CHO cell membranes
Protocol: (§1) All FRET binding experiments were conducted at room temperature in white 384-well plates, in assay binding buffer containing 1× LabMed (Cisbio, France), 100 μg/mL saponin, 1% DMSO and 0.02% pluronic acid. Binding of the fluorescently labelled Adenosine receptor antagonist XAC (CA200645, FRET acceptor) to terbium-labelled A1, A2a, A2b and A3 adenosine receptors (FRET donors) was detected by time-resolved FRET due to the close proximity of the donor and acceptor in a binding event. To investigate the ability of unlabelled test compounds to bind to Adenosine A1, A2a, A2b and A3 receptors, dose response curves were constructed that determined the ability of a range of concentrations to inhibit the binding of 30 nM CA200645 to the A2b receptor and 100 nM CA200645 to the A1, A2a, and A3 receptor.
(§2) Serial dilution (1:3 dilutions) of test compounds in neat DMSO and transfer of a 400 nL sample of test compound into the assay plate was carried out using the Mosquito (TTP Labtech, UK). The compound samples were incubated for 2 hours at room temperature with a fixed concentration of CA200645 defined for each receptor (see above) and CHO cell membranes containing the human Adenosine A1 (0.5 μg/well), A2a (0.3 μg/well), A2b (1 μg/well) or A3 (1 μg/well) receptor in 40 μL of assay buffer. Total and non-specific binding of CA200645 was determined in the absence and presence of 10 μM XAC, respectively.
(§3) Following 2 hours incubation, the level of CA200645 binding was detected on a Pherastar FSX (BMG Labtech, Germany) using standard TR-FRET settings. The terbium donor was excited with three laser flashes at a wavelength of 337 nm, and donor and acceptor emission was detected at 620 nm and 665 nm wavelengths, respectively. FRET ratios were obtained by multiplying the acceptor/donor ratio value by 10,000. Specific binding was determined by subtracting the non-specific binding FRET ratio from the total binding FRET ratio. Compound IC50 curves were analysed using GraphPad Prism 7.0 (GraphPad, USA) and Ki affinity values were determined from the obtained […] values using the method of Cheng and Prusoff.

Adenosine A2b receptor = biological target: T2, Adenosine A2b receptor (Homo sapiens, UniProt P29275); experiment: Adenosine receptor TR-FRET binding assay, A2b; conditions: Table 9, further testing; displacement of 30 nM CA200645, CHO cell membranes
T2 construct: expressed in transfected cells; host or cells: CHO cell membranes
T2 sequence (P29275 1-332): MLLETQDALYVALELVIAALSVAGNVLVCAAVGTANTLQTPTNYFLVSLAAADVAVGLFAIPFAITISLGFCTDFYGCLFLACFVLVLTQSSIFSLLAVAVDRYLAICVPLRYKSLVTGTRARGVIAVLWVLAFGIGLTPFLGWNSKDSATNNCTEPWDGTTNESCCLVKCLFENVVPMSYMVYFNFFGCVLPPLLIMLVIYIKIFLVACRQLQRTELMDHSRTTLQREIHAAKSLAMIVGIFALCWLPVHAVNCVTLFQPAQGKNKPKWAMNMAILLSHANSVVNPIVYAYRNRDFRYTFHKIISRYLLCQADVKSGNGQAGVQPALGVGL
Protocol: as §1, §2, §3

Adenosine A1 receptor = biological target: T3, Adenosine A1 receptor (Homo sapiens, UniProt P30542); experiment: Adenosine receptor TR-FRET binding assay, A1; conditions: Table 9, further testing; displacement of 100 nM CA200645, CHO cell membranes
T3 construct: expressed in transfected cells; host or cells: CHO cell membranes
T3 sequence (P30542 1-326): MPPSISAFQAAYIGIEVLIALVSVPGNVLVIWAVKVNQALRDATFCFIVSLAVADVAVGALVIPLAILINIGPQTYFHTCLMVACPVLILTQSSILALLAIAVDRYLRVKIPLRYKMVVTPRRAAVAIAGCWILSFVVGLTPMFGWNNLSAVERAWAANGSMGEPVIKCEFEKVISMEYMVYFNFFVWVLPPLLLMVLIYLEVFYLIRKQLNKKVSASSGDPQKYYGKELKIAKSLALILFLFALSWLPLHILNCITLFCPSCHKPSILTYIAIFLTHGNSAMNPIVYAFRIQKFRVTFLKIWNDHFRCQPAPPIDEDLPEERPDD
Protocol: as §1, §2, §3

T1 sequence (P29274 whole entry): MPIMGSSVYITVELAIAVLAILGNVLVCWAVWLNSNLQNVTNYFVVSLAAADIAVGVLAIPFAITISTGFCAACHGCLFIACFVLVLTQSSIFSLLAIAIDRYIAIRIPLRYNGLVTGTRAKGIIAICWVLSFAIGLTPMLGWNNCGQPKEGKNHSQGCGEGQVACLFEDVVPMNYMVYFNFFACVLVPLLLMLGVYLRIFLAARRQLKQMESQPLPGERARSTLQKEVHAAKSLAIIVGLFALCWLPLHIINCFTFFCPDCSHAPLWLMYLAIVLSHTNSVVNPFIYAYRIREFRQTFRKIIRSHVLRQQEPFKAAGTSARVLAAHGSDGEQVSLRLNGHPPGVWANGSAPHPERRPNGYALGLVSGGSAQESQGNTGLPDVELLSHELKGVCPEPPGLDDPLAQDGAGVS

Row | Structure (SMILES) | Ki (Adenosine A2a receptor; Table 8, Cheng and Prusoff) [nM] | Ki (Adenosine A2a receptor; Table 9, further testing) [nM] | Ki (Adenosine A2b receptor) [nM] | Ki (Adenosine A1 receptor) [nM]
1 | Nc1nc(-c2cccc(F)c2)ncc1C(=O)NCc1ccccc1 [Example 4, 4-Amino-N-benzyl-2-(3-fluorophenyl)pyrimidine-5-carboxamide] | 74 | 75 | 1210 | –
2 | Nc1nc(-c2cccc(F)c2)ncc1C(=O)NCCc1ccccc1 [Example 4.1, 4-Amino-2-(3-fluorophenyl)-N-(2-phenylethyl)pyrimidine-5-carboxamide] | 141 | 142 | 1730 | –
3 | Nc1nc(-c2cccc(F)c2)ncc1C(=O)Nc1ccccc1 [Example 4.2, 4-Amino-2-(3-fluorophenyl)-N-phenyl-pyrimidine-5-carboxamide] | 112 | 112 | 8060 | –
4 | Nc1nc(-c2cccc(F)c2)ncc1C(=O)NCc1ccccc1F [Example 5.1, 4-Amino-2-(3-fluorophenyl)-N-[(2-fluorophenyl)methyl]pyrimidine-5-carboxamide] | 90 | 90 | 172 | –
5 | Nc1nc(-c2cccc(F)c2)ncc1C(=O)NCc1c(F)cccc1F [Example 5.4, 4-Amino-N-[(2,6-difluorophenyl)methyl]-2-(3-fluorophenyl)pyrimidine-5-carboxamide] | 50 | 50 | 138 | –
6 | Nc1nc(-c2cccc(F)c2)ncc1C(=O)NCc1ncccc1C(F)(F)F [Example 5.6, 4-Amino-2-(3-fluorophenyl)-N-[[3-(trifluoromethyl)-2-pyridyl]methyl]pyrimidine-5-carboxamide] | 29 | 29 | 622 | –
7 | Nc1nc(-c2cccc(F)c2)ncc1C(=O)NCCc1ccc(O)cc1 [Example 5.7, 4-Amino-2-(3-fluorophenyl)-N-[2-(4-hydroxyphenyl)ethyl]pyrimidine-5-carboxamide] | 505 | 505 | 3260 | –
8 | CCOc1cccnc1CNC(=O)c1cnc(-c2cccc(F)c2)nc1N [Example 5.8, 4-Amino-N-[(3-ethoxy-2-pyridyl)methyl]-2-(3-fluorophenyl)pyrimidine-5-carboxamide] | 21 | 21 | 679 | –
9 | Nc1nc(-c2cccc(F)c2)ncc1C(=O)NCc1ccccn1 [Example 5.9, 4-Amino-2-(3-fluorophenyl)-N-(2-pyridylmethyl)pyrimidine-5-carboxamide] | 76 | 76 | 195 | –
10 | Cc1ccccc1CNC(=O)c1cnc(-c2cccc(F)c2)nc1N [Example 5.10, 4-Amino-2-(3-fluorophenyl)-N-(o-tolylmethyl)pyrimidine-5-carboxamide] | 150 | 150 | 10000 | –
11 | CN(Cc1ccccc1)C(=O)c1cnc(-c2ccco2)nc1N [Example 5.22] | 871 | 871 | – | 4240
12 | CC(C)n1ncnc1CNC(=O)c1cnc(-c2ccco2)nc1N [Example 5.27, 4-Amino-2-(2-furyl)-N-[(2-isopropyl-1,2,4-triazol-3-yl)methyl]pyrimidine-5-carboxamide] | 17 | 17 | – | 2680
13 | COc1cccc(OC)c1CNC(=O)c1cnc(-c2ccco2)nc1N [Example 5.31, 4-Amino-N-[(2,6-dimethoxyphenyl)methyl]-2-(2-furyl)pyrimidine-5-carboxamide] | – | 1.2 | 4220 | 1530
14 | CC(C)n1ccnc1CNC(=O)c1cnc(-c2ccco2)nc1N [Example 5.33, 4-Amino-2-(2-furyl)-N-[(1-isopropylimidazol-2-yl)methyl]pyrimidine-5-carboxamide] | – | 9.4 | 6680 | –
15 | Nc1nc(-c2ccco2)ncc1C(=O)NCc1cc2ccccc2cn1 [Example 5.36, 4-Amino-2-(2-furyl)-N-(3-isoquinolylmethyl) pyrimidine-5-carboxamide] | – | 14 | 970 | 2660
16 | Cn1ccnc1CNC(=O)c1cnc(-c2ccco2)nc1N [Example 5.37, 4-Amino-2-(2-furyl)-N-[(1-methylimidazol-2-yl)methyl]pyrimidine-5-carboxamide] | – | 16 | 1600 | –
17 | COc1cccc(CNC(=O)c2cnc(-c3ccco3)nc2N)c1OC [Example 5.38, 4-Amino-N-[(2,3-dimethoxyphenyl)methyl]-2-(2-furyl)pyrimidine-5-carboxamide] | – | 20 | 2360 | –
18 | Nc1nc(-c2ccco2)ncc1C(=O)NCc1ccc2[nH]ccc2c1 [Example 5.41, 4-Amino-2-(2-furyl)-N-(1H-indol-5-ylmethyl) pyrimidine-5-carboxamide] | – | 52 | 1090 | 4740

More lines, now with the values ahead:

Row | Ki (Adenosine A2a receptor; Table 8, Cheng and Prusoff) [nM] | Ki (Adenosine A2a receptor; Table 9, further testing) [nM] | Ki (Adenosine A2b receptor) [nM] | Ki (Adenosine A1 receptor) [nM] | Structure (SMILES)
19 | – | 230 | – | 4770 | Nc1nc(-c2ccco2)ncc1C(=O)NCc1ccc2cnccc2c1 [Example 5.47, 4-Amino-2-(2-furyl)-N-(6-isoquinolylmethyl) pyrimidine-5-carboxamide]
20 | – | 105 | 2120 | – | Nc1nc(-c2ccco2)ncc1C(=O)NCc1ncccn1 [Example 5.58, 4-Amino-2-(2-furyl)-N-(pyrimidin-2-ylmethyl)pyrimidine-5-carboxamide]
21 | 96 | 96 | 378 | – | COc1cccc(CNC(=O)c2cnc(-c3cccc(F)c3)nc2N)c1OC [Example 10.10, 4-Amino-N-[(2,3-dimethoxyphenyl)methyl]-2-(3-fluorophenyl)pyrimidine-5-carboxamide]
22 | 31 | 31 | – | 2380 | Cc1ccc(CNC(=O)c2cnc(-c3ccco3)nc2N)cc1 [Example 11.1, 4-Amino-2-(2-furyl)-N-(p-tolylmethyl)pyrimidine-5-carboxamide]
23 | 34 | 34 | – | 5650 | Cc1cccnc1CNC(=O)c1cnc(-c2ncco2)nc1N [Example 16, 4-Amino-N-[(3-methyl-2-pyridyl)methyl]-2-oxazol-2-yl-pyrimidine-5-carboxamide]
24 | – | 40 | 7170 | – | Cc1cccnc1CNC(=O)c1cnc(-c2nccs2)nc1N [Example 16.1, 4-Amino-N-[(3-methyl-2-pyridyl)methyl]-2-thiazol-2-yl-pyrimidine-5-carboxamide]
25 | – | 6.8 | – | 598 | CC(=O)NCCNc1nc(-c2ccco2)nc(N)c1C(=O)NCc1ncccc1C [Example 22, 4-(2-Acetamidoethylamino)-6-amino-2-(2-furyl)-N-[(3-methyl-2-pyridyl)methyl]pyrimidine-5-carboxamide]
26 | – | 864 | – | 8530 | Cc1cccnc1CNC(=O)c1c(N)nc(-c2ccco2)nc1OCCC1CCCCN1 (stereo not shown) [Example 23, 4-Amino-2-(2-furyl)-N-[(3-methyl-2-pyridyl)methyl]-6-[2-(2-piperidyl)ethoxy]pyrimidine-5-carboxamide]
